Laboratory results taken from patent US20090042969A1, “Use of Specific Trifluoromethyl Ketones for Preventing and Treating Pancreatitis” (priority 2005, published 2009).
Entries after “also recorded” stand apart in the source; their conditions may differ. Where two headings read alike, the source gives them in different places.

What was measured:
[1] = biological target: T1, human neutrophil elastase (Homo sapiens, UniProt P08246); test: In vitro inhibitor specificity: neutrophil elastase activity; assay type: biochemical
T1 construct: This commercial product was purified from human serum by HPLC; purchased Calbiochem; host or cells: purified from human serum
T1 sequence (P08246 30-267): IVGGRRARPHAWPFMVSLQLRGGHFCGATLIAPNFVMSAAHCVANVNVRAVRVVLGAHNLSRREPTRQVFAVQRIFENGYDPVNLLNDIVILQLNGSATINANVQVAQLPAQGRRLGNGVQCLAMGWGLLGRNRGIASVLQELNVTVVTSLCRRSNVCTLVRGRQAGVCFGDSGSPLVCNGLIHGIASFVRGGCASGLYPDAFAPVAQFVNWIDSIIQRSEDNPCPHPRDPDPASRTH
Method: Human neutrophil elastase was purchased from Calbiochem (San Diego, Calif., U.S.A.). This commercial product was purified from human serum by HPLC (protein concentration >20 units/mg of protein specific activity; in 50 mM sodium acetate pH 5.5 and 200 mM sodium chloride; purity >95%). […] Porcine pancreatic elastase was purchased from Calbiochem and was purified from porcine pancreas. The specific activity was 50 units/mg of protein in 50 mM potassium phosphate buffer, pH 7.0. […]

[2] = tested on: caerulein-induced pancreatitis; test: Morphological damage of the pancreas in caerulein-induced pancreatitis; assay type: in vivo, rat
Method: (§1) Male Wistar rats (140 to 250 g) were anesthetized with pentobarbital (30 mg/kg). A cannula was placed in the jugular vein, and a supramaximal concentration of caerulein (10 μg/kg per hour) was administered to the animals by infusion for four and twelve hours. […] Animals which received a saline solution as infusion and were fed with compound II through a tube served as control. Each treatment group consisted of five animals. After the exsanguination under ether anesthesia, the pancreas was quickly removed and freed of fat, and tissue blocks were fixed in 5% paraformaldehyde for the histology in paraffin-embedded sections. The largest portion of the pancreas was frozen in liquid nitrogen and stored at −80° C. for later protein analysis and for detection of the enzyme activity.
(§2) The animals were sacrificed after four and twelve hours, and pancreatic tissue, serum and lung tissue were collected for further analyses (see FIG. 2).

[3] = biological target: T2, myeloperoxidase (Homo sapiens, UniProt P05164); test: In vitro inhibitor specificity: myeloperoxidase activity; assay type: biochemical; conditions: compound II 1 nM to 1 mM
T2 construct: purified from blood by HPLC; purchased Calbiochem; host or cells: purified from blood
Method: (§3) Caerulein was obtained from Pharmacia, Freiburg, Germany. Human neutrophil elastase was purchased from Calbiochem (San Diego, Calif., U.S.A.). This commercial product was purified from human serum by HPLC (protein concentration >20 units/mg of protein specific activity; in 50 mM sodium acetate pH 5.5 and 200 mM sodium chloride; purity >95%). Human myeloperoxidase was purchased from Calbiochem and purified from blood by HPLC (1 mg/10 ml protein concentration, 150 to 200 units mg protein specific protein activity, in 100 mM sodium chloride, 50 mM sodium acetate, purity >95%). Porcine pancreatic elastase was purchased from Calbiochem and was purified from porcine pancreas. […]
(§4) The trypsin activity (10 mU), myeloperoxidase activity (100 mU) and the neutrophil elastase activity (10 mU) was determined by using the specific fluorogenic substrates [CBZ-Ile-Pro-Arg]2-rhodamine 110 or [CBZ-Ala4]-aminomethylcoumarin (AMC) in 100 mM tris-HCl buffer (pH 8.0), which contained 5 mM CaCl2, 10 μM substrate (final concentration) and 10 mU of bovine trypsin in a volume of 150 μl, at an excitation wavelength of 485 nm and an emission wavelength of 530 nm or an excitation wavelength of 350 nm and an emission wavelength of 460 nm at 37° C. The initial rates of the substrate hydrolysis were measured as arbitrary fluorescence units per minute. […]

[4] = tested on: neutrophil elastase; test: Inhibition of neutrophil elastase after oral or intravenous administration; assay type: in vivo
[5] = biological target: T3, cathepsin B (Homo sapiens, UniProt P07858); test: In vitro inhibitor specificity: cathepsin B activity; assay type: biochemical; conditions: compound II 1 nM to 1 mM
T3 construct: This commercial product was purified from human liver by HPLC; purchased Calbiochem; host or cells: purified from human liver

[6] = tested on: caerulein-induced pancreatitis; test: Pancreatic water content (edema) in caerulein-induced pancreatitis; assay type: in vivo, rat; conditions: oral 240 mg/kg per day
Method: as §1, §2
Determination of the pancreatic water content: the water content of the pancreas was determined by comparing the freshly obtained tissue (wet weight) with the weight of the same sample after drying (dry weight). In order to ensure complete drying, the tissue was incubated at […] for 24 hours, a constant weight being reached. The results were represented as percentage of the difference between the wet weight and the dry weight divided by the original wet weight.

[7] = biological target: T4, trypsin (Bos taurus, UniProt P00760); test: In vitro inhibitor specificity: trypsin activity; assay type: biochemical, bovine; conditions: compound II 1 nM to 1 mM
T4 sequence (P00760 24-246): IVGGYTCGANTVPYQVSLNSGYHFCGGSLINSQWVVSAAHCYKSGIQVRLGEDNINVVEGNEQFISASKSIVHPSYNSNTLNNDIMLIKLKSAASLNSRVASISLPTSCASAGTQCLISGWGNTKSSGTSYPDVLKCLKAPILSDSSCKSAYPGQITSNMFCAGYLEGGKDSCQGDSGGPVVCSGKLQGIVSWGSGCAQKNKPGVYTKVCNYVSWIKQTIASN
Method: The trypsin activity (10 mU), myeloperoxidase activity (100 mU) and the neutrophil elastase activity (10 mU) was determined by using the specific fluorogenic substrates [CBZ-Ile-Pro-Arg]2-rhodamine 110 or [CBZ-Ala4]-aminomethylcoumarin (AMC) in 100 mM tris-HCl buffer (pH 8.0), which contained 5 mM CaCl2, 10 μM substrate (final concentration) and 10 mU of bovine trypsin in a volume of 150 μl, at an excitation wavelength of 485 nm and an emission wavelength of 530 nm or an excitation wavelength of 350 nm and an emission wavelength of 460 nm at 37° C. The initial rates of the substrate hydrolysis were measured as arbitrary fluorescence units per minute. The cathepsin B activity (100 mU) and cathepsin L activity (100 mU) were then determined in 0.25 M sodium acetate buffer (pH 5.0), which contained 2 mM EDTA 1 mM DTT, 10 μM of the specific substrate CBZ-[Arg]2-aminomethylcoumarin or 10 μM [CBZ-Phe-Arg]-rhodamine 110 (final concentration) in a final volume of 150 μl, at an excitation wavelength of 350 nm and an emission wavelength of 460 nm or 485 nm and an emission wavelength of 530 nm at 37° C.
The results were calculated in percent of the initial enzyme activity (Kukor et al., 2002).

[8] = biological target: T5, cathepsin L (Homo sapiens, UniProt P07711); test: In vitro inhibitor specificity: cathepsin L activity; assay type: biochemical; conditions: compound II 1 nM to 1 mM
T5 construct: prepared from human liver; purchased Calbiochem; host or cells: prepared from human liver

[9] = Pharmacokinetics (half-life, AUC, bioavailability); design: species or system rats, hamsters and dogs; conditions: rat, hamster, dog, in vivo
[10] = tested on: caerulein-induced pancreatitis; test: Serum amylase activity (hyperamylasemia) in caerulein-induced pancreatitis; assay type: in vivo, rat; conditions: oral administration; four and twelve hours of pancreatitis
Method: as §1, §2

[11] = tested on: caerulein-induced pancreatitis; test: Myeloperoxidase activity in pancreatic homogenates in caerulein-induced pancreatitis; assay type: in vivo, rat; conditions: oral 240 mg/kg per day
Method: as §1, §2
To measure the myeloperoxidase (MPO) activity, the tissue was thawed and homogenized on ice in 20 mM potassium phosphate buffer (pH 7.4) and centrifuged at 20 000 g at 4° C. for 10 minutes. The pellet was resuspended in […] potassium phosphate buffer (pH 6.0) which contained 0.5% cethyltrimethylammonium bromide. […]
The original increase in the absorption at 450 nm was measured at room temperature using a Dynatech MR 5000 ELISA reader. […]

[12] = biological target: T6, pancreatic elastase (Sus scrofa, UniProt P00772); test: In vitro inhibitor specificity: pancreatic elastase activity; assay type: biochemical, porcine
T6 construct: was purified from porcine pancreas; purchased Calbiochem; host or cells: purified from porcine pancreas
Method: as §3, §4

[13] = tested on: caerulein-induced pancreatitis; test: Myeloperoxidase activity and morphology of the lung during caerulein-induced pancreatitis; assay type: in vivo, rat
Method: as §1, §2
Pancreatitis influences not only the pancreas but also leads to a systemic inflammatory response which affects other organs such as the kidneys or the lung. […] The morphological differences in the lung tissues during caerulein-induced pancreatitis consisted of accumulations of alveolar fluid and a progressive thickening, hyperemia and neutrophil infiltration of the intraalveolar tissue. […]

[14] = compound II together with caerulein

T2 sequence (P05164 279-745 limits assumed): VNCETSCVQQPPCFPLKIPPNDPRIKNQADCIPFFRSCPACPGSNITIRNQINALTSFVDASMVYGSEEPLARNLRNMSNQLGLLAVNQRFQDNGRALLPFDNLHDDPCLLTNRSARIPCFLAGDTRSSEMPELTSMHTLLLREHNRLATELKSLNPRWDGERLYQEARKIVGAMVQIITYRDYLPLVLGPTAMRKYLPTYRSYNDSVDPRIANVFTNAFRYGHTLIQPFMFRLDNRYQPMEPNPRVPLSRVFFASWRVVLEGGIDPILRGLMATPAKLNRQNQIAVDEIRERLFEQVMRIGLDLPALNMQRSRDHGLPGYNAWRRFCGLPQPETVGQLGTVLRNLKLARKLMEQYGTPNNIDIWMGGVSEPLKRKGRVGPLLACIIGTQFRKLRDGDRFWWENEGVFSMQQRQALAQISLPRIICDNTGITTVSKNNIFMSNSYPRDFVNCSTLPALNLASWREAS
T2 sequence (P05164 165-273 limits assumed): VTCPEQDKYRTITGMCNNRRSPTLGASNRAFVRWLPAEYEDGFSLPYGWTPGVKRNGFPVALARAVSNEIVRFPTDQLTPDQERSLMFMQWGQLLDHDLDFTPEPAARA
T5 sequence (P07711 114-333): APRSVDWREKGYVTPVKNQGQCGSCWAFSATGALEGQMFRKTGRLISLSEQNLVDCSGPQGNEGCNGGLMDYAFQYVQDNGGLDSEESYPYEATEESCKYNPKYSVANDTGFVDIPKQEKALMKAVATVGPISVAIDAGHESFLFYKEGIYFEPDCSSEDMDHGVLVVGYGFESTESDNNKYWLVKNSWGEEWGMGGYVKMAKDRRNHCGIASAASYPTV
T6 sequence (P00772 27-266): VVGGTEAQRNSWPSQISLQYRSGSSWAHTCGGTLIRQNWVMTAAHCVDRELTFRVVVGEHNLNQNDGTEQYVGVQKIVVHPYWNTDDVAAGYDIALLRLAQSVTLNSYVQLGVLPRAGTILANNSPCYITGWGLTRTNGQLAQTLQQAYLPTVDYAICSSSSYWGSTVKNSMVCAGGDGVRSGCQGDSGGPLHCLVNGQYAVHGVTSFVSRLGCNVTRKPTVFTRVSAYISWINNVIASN

COc1ccc(C(=O)N[C@H](C(=O)N2CCC[C@H]2C(=O)N[C@H](C(=O)C(F)(F)F)C(C)C)C(C)C)cc1 [compound II]
inhibitory activity for human neutrophil elastase by comparison with pancreatic elastase [1]: five times higher | morphological changes like those observed in acute pancreatitis ([2]; compound II alone, no caerulein): did not lead to any morphological changes | development of the interstitial edema and the intracellular vacuolization [2, 14]: prevented | number of infiltrating inflammatory cells in pancreas [2, 14]: greatly reduced | influence on myeloperoxidase activity [3]: not significantly influenced; also recorded: excluded | influence on myeloperoxidase activity ([3]; listed as Compound II): does not inhibit | dose to inhibit 50% of the enzyme activity ([4]; intravenous administration): 0.59 mg/kg of body weight | dose to inhibit 50% of the enzyme activity ([4]; oral administration): 4.9 mg/kg of body weight | inhibition of neutrophil elastase ([4]; oral administration of 10 mg/kg of body weight): 84% | influence on cathepsin B activity [5]: not significantly influenced | influence on cathepsin B activity ([5]; listed as Compound II): does not inhibit | change in the water content of the pancreas ([6]; compound II alone (control 2), no caerulein): did not lead to a significant change | formation of pancreatic edemas (water content) ([6]; four and twelve hours after starting caerulein infusion): significant reduction | influence on trypsin activity [7]: not significantly influenced | influence on trypsin activity ([7]; listed as Compound II): does not inhibit | influence on cathepsin L activity [8]: not significantly influenced | influence on cathepsin L activity ([8]; listed as Compound II): does not inhibit | AUC ([9]; intravenous, read-out: intravenous AUC): 1360 to 3180 ng·h/mL | bioavailability ([9]; oral versus intravenous AUC, read-out: percentage bioavailability): 26 to 82% | AUC ([9]; oral, read-out: oral bioavailability (AUC)): 355 to 1400 ng·h/mL | half-life ([9]; rats, hamsters and dogs, read-out: biological half-life): 0.82 to 2 h | amylase activity in serum [10]: significantly reduced | reduction in MPO activity in pancreatic tissue [11]: more than 50% | Ki [12]: 200 nM | IC50 ([12]; FIG. 1): 1000 nM | morphological differences in lung tissue (alveolar fluid, thickening, hyperemia, neutrophil infiltration) [13]: reduced | MPO activity in lung tissue ([13]; effect greater after twelve than four hours): significant reduction
